Test results as given in patent US20160220637A1, “Pharmaceutical Compositions of Growth Hormone Secretagogue Receptor Ligands” (Ipsen Pharma S.A.S., priority 2010, published 2016).
pKi: −log10 of the molar value. Counter-ions that a name gives are not always drawn. Non-standard residues stand in square brackets, D forms with d. Residues, ends and D or L forms follow the SMILES beside them. dBip = N[C@H](Cc1ccc(-c2ccccc2)cc1)C(=O)O; dBta = N[C@H](Cc1csc2ccccc12)C(=O)O; Api = NC1(C(=O)O)CCNCC1; Inp = O=C(O)C1CCNCC1

Assays:
[1] = molecular target: human recombinant GHS receptor (Homo sapiens, UniProt Q92847); conditions: read-out: hGHS Ki; 0.05 nM (125I)ghrelin, 60 min, 4° C., CHO-K1 membranes
Sequence of human recombinant GHS receptor (Q92847 whole entry): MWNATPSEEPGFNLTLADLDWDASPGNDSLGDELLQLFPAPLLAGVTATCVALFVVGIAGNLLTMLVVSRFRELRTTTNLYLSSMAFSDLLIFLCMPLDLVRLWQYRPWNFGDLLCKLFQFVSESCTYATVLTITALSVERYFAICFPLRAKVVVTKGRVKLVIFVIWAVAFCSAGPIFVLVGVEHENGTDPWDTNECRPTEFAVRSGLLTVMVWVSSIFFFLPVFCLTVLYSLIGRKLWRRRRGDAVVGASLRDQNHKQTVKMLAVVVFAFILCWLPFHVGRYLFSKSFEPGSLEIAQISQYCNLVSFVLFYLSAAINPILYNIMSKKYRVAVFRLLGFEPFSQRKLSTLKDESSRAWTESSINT

[2] = Solubility study; type: physicochemical
From the text: The mixture was sonicated to facilitate dissolution.

Row | Solubility, PBS, pH 7.4 ([2]; PBS, pH 7.4, HPLC of supernatant) [mg/mL] | Solubility, Water, pH 7.0 ([2]; HPLC of supernatant) [mg/mL] | Dissolution in PEG200/water ([2]; 50 mg in 125 μL PEG200 and 125 μL water, sonicated) | solubility ([2]; PBS, pH 7.4, PBS, pH 7.4, HPLC of supernatant) [µg/mL] | Compound | pKi [1]
1 | – | – | – | – | NC(=O)[C@H](Cc1ccccc1)NC(=O)[C@@H](Cc1c[nH]c2ccccc12)NC(=O)[C@@H](Cc1ccc(-c2ccccc2)cc1)NC(=O)C1CCNCC1 [Example 16, H-Inp-D-Bip-D-Trp-Phe-NH2] (H-[Inp][dBip][dW]F-NH2) | 7.70
2 | 0.08 | 0.14 | – | – | NC(=O)C1(NC(=O)[C@H](Cc2ccccc2)NC(=O)[C@@H](Cc2c[nH]c3ccccc23)NC(=O)[C@@H](Cc2csc3ccccc23)NC(=O)C2CCNCC2)CCNCC1 [Pamoate salt of Example 1 with Zn] (H-[Inp][dBta][dW]F[Api]-NH2) | –
3 | – | 0.06 | A clear solution was obtained | 70 | NC(=O)C1(NC(=O)[C@H](Cc2ccccc2)NC(=O)[C@@H](Cc2c[nH]c3ccccc23)NC(=O)[C@@H](Cc2csc3ccccc23)NC(=O)C2CCNCC2)CCNCC1 [Pamoate salt of Example 1, pamoate salt of H-Inp-D-Bal-D-Trp-Phe-Apc-NH2] (H-[Inp][dBta][dW]F[Api]-NH2) | –
